Where “and” joins values, the source holds several entries; their conditions need not be identical. Identical values can stand only once.

Ki data for four molecules are collected here from BindingDB's records for doi:10.1007/s002100000217 (Croissy-Sur-Seine Paris, 2000).

The assay has as its target D(3) dopamine receptor (Homo sapiens, UniProt P35462).

D(3) dopamine receptor, sequence (P35462 as listed by the source): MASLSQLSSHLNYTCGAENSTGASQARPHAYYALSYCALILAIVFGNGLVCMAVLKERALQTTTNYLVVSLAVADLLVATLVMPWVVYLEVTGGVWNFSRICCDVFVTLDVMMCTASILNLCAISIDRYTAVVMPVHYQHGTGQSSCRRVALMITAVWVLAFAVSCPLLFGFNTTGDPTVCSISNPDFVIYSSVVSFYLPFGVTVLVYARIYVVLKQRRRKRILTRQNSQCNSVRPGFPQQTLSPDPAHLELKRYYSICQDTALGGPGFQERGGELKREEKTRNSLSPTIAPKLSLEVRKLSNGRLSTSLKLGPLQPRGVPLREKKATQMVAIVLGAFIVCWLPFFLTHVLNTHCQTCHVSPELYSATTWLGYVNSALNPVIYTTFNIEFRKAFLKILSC

As for `CCCN1CCO[C@@H]2c3cc(O)ccc3OC[C@H]21`, the Ki is 2.14 nM and 7.59 nM and 3.55 nM.
As to `CCCN(CCC)C1CCc2cc3c(cc2C1)OCC3` (centres undefined), the inhibitory constant (Ki) was 12.3 nM and 33.1 nM and 11.5 nM.
On to `CCCN(CCC)C1CCc2cc(CS(=O)(=O)c3ccc(OC)cc3)ccc2C1` (centres undefined) [GR218231], for which the Ki was 1.12 nM and 1.95 nM and 1.38 nM.
Regarding `N#Cc1ccc2c(c1)[C@H]1CN(CCCCNC(=O)c3ccc(-c4ccccc4)cc3)C[C@@H]1CO2` [S33084], the Ki was 0.302 nM and 0.933 nM and 0.372 nM.
